Source: paper PMC13065040 (PLOS One, 2026)

Target: T1, MMP-2 (Homo sapiens, UniProt P08253)
T1 construct: ProSpec Bio; Antibodies-Online; Elabscience; Abcam ENZ-769; ABIN7400042; PKSH033450
T1 sequence (P08253 110-660): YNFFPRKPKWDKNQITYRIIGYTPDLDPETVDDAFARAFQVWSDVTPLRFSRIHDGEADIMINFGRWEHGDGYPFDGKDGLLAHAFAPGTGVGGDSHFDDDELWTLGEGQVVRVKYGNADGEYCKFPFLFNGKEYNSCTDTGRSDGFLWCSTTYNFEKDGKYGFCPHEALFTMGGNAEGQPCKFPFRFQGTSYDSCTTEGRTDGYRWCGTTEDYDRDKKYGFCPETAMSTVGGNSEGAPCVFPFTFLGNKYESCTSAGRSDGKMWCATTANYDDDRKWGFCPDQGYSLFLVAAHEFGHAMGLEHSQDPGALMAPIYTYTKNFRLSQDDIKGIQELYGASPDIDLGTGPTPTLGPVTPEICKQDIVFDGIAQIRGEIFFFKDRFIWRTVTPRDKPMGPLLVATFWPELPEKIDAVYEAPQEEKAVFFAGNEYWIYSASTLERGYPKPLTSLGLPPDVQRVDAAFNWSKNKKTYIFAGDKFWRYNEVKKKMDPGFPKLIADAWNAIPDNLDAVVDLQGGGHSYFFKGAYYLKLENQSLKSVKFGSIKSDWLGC
Assay: Differential scanning fluorimetry (DSF)
Format: binding
Design: Dtm (ΔTm): unit not given here
Conditions: for Dtm (ΔTm), average / Tm of MMP-2 with peptide, average: average of replicates; for Dtm (ΔTm) / Tm of MMP-2 with peptide: CTX experiment
Procedure: The melting temperatures (Tm) of recombinant MMP-2 and its complexes with peptides were ascertained using BioRad CFX384 Touch real-time PCR (Hercules, CA, USA). The experiments were performed as previously described. The unfolding of the protein was detected using the fluorescent SYPRO-orange dye (Invitrogen, Carlsbad, CA, USA). MMP-2 and prospective ligand peptides were dissolved in 7.1 pH phosphate buffered saline (154 mM NaCl, 5.6 mM Na2PO4, 1.1 mM KH2PO4), and the reaction mixture was made to a final concentration of 1 µM of protein, either 30 µM ([…]) of peptide, and 1000x dilution of the SYPRO-Orange dye stock from the manufacturer. Excitation and emission filters of the dye were set at 450 − 490 nm and 560 − 580 nm, respectively. The temperature for the reaction was held at 25 °C for 5 min, and then a gradient of 25 °C to 95 °C was applied at a rate of 0.3 °C/min, and the fluorescence was recorded. To determine Tm of the protein, the first derivatives of melting curves were plotted using GraphPad Prism software, version 10.0.3.

## Chlorotoxin [Ctx]
Peptide 30 (µM per method)
  Dtm (ΔTm), average: 2.368e-15
  Tm of MMP-2 with peptide, average: 47.7
Peptide 30, replicate 1
  Dtm (ΔTm): -0.2
  Tm of MMP-2 with peptide: 47.5 °C
Peptide 30, replicate 2
  Dtm (ΔTm): 0.1
  Tm of MMP-2 with peptide: 47.8 °C
Peptide 30, replicate 3
  Dtm (ΔTm): 0.1
  Tm of MMP-2 with peptide: 47.8 °C
Peptide 50 (µM per method)
  Dtm (ΔTm), average: -0.2
  Tm of MMP-2 with peptide, average: 47.5
Peptide 50, replicate 1
  Dtm (ΔTm): -0.2
  Tm of MMP-2 with peptide: 47.5 °C
Peptide 50, replicate 2
  Dtm (ΔTm): -0.2
  Tm of MMP-2 with peptide: 47.5 °C
Peptide 50, replicate 3
  Dtm (ΔTm): -0.2
  Tm of MMP-2 with peptide: 47.5 °C
